What was measured:
[1] = tested on: pY641-STAT6 in Peripheral Blood Mononuclear Cells (PBMC); experiment: MSD-pSTAT-PBMC Assay (pSTAT6, IL-4 stimulated); assay type: cell-based, Human; settings: Homo sapiens, compound 3 hrs, then 1 ng/mL IL-4 for 10 min
Text: Cryopreserved Peripheral Blood Mononuclear Cells (PBMC) are from AllCells. Recombinant Human IL-4 and IL-6 are from Peprotech. Mouse monoclonal anti-STAT3 antibody, rabbit monoclonal anti-pY705-STAT3 antibody, rabbit monoclonal Anti-pY641-STAT6 antibody, and lysis buffer are from Cell Signaling Technology (CST). Mouse monoclonal anti-STAT6 antibody is from BioLegend. Assay plates, blocker, and anti-rabbit secondary antibody are from Meso Scale Discovery (MSD).
Cryopreserved PBMCs were thawed out and allowed to recover overnight in IMDM+10% heat-inactivated FBS prior to plating 50,000 (STAT3) or 25,000 (STAT6) cells per well in 96-well U-bottom tissue culture plates. Cells were treated with compound for 3 hrs, then stimulated with 10 ng/mL IL-6 (STAT3) or 1 ng/mL IL-4 (STAT6) for 10 min. Cells were then spun down and washed with ice-cold PBS prior to lysing the cell pellet with 1× lysis buffer (CST) with 1×HALT protease and phosphatase inhibitor cocktail (Thermo). Lysates were transferred to and incubated overnight at 4° C. with shaking in QuickPlex 96-well high bind assay plates (MSD) pre-coated overnight with 30 μL per well of 0.6 μg/mL mouse monoclonal anti-STAT3 antibody (STAT3) or 2 μg/mL mouse monoclonal anti-STAT6 antibody (STAT6) in 1×PBS, and pre-blocked for 1 hour with 3% Blocker-A (MSD). Captured protein in the assay plates were then washed and probed with 25 μL per well of 0.25 μg/ml rabbit monoclonal anti-pY705-STAT3 antibody (STAT3) or […] rabbit monoclonal Anti-pY641-STAT6 antibody (STAT6) in 1% Blocker-A for 1 hour at room temperature with shaking, then washed and probed with 25 ul per well of 1 ug/ml Sulfo-TAG Labeled Goat Anti-Rabbit Antibody (MSD) in 1% Blocker-A for 1 hour at room temperature with shaking. Assay plates were then washed and 150 μL of 1× Read Buffer-T (MSD) was added to each well prior to reading on an SQ120 MSD Plate Reader. Assay signal from each sample was subtracted by the signal from unstimulated control wells and normalized to DMSO control wells. IC50 values were calculated using Graph Pad Prism Dose-Response Nonlinear Regression with variable slope. For both pSTAT3 and pSTAT6 A=≤100 nM; B=>100-1000 nM; C=>1000-3000 nM; and D=>3 μM.

[2] = biological target: T1, Recombinant STAT3 protein (STAT3(G127-I722)) (Homo sapiens, UniProt P40763); experiment: STAT3 Fluorescence Polarization (FP) Assay; assay type: binding; settings: STAT3(G127-I722) 25 nM, probe 5-FAM-GpYLPQTV-NH2 2 nM, 45-minute incubation
T1 construct: Recombinant STAT3 protein (STAT3(G127-I722))
T1 sequence (P40763 127-722): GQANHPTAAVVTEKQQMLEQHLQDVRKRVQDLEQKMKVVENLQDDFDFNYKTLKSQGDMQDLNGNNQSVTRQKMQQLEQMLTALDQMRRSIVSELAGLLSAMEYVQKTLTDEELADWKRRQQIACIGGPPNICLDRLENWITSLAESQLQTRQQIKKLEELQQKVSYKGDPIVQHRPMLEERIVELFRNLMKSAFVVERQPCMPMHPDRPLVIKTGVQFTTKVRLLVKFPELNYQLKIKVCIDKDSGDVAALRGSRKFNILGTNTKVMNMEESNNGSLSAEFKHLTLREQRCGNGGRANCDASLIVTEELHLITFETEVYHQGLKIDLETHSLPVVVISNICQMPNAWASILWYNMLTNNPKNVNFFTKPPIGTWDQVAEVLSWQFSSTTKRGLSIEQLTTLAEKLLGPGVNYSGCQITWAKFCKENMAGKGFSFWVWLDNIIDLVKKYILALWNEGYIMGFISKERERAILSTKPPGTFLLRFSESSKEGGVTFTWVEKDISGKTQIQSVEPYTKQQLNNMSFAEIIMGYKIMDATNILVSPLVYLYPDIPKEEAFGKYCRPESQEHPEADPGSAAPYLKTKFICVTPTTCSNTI
Summary of the method: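 Fluorescence polarization after a 45-min room-temperature incubation measured compound displacement of a 2 nM fluorescein-labelled phosphotyrosine peptide (5-FAM-GpYLPQTV-NH2) from 25 nM recombinant STAT3(G127-I722). Buffer was 10 mM HEPES pH 7.4 with 1% DMSO final. IC50s were fitted by nonlinear regression of mP against log concentration.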

[3] = biological target: T2, Recombinant STAT6 protein (STAT6(W123-T658)) (Homo sapiens, UniProt P42226); experiment: STAT6 Fluorescence Polarization (FP) Assay; assay type: binding; settings: STAT6(W123-T658) 250 nM, probe 5-FAM-ApYKPFQDLI-NH2 2 nM, 45-minute incubation
T2 construct: Recombinant STAT6 protein (STAT6(W123-T658))
T2 sequence (P42226 123-658): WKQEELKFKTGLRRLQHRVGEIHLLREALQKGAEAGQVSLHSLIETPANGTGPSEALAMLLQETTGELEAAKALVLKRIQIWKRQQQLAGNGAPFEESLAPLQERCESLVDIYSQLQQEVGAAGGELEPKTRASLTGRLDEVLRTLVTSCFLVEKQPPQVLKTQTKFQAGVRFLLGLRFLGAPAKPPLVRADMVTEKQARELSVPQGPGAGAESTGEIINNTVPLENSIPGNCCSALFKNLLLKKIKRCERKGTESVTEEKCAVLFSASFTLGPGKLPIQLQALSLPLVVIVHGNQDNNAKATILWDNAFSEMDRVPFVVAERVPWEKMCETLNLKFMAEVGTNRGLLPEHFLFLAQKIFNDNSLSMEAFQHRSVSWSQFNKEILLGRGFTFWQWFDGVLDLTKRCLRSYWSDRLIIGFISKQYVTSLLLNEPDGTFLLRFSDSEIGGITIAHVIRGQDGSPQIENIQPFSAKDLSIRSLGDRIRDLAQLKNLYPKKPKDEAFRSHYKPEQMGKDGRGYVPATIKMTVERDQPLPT
Summary of the method: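 Displacement of a fluorescent phosphotyrosine peptide (5-FAM-ApYKPFQDLI-NH2, 2 nM) from STAT6(W123-T658) (250 nM), 1% DMSO, pH 7.4 HEPES buffer. After 45 min at room temperature, polarization (mP) was plotted versus log compound concentration and fitted by nonlinear regression to give IC50.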

Compound | IC50 [1] [nM] | IC50 [2] [nM] | IC50 [3] [nM]
CCCOC(=O)[C@H](C)NP(=O)(Oc1ccccc1)C(F)c1ccc2sc(C(=O)N[C@H]3CN(CC(F)F)CC[C@H]4CC[C@@H](C(=O)N5C[C@@H](C#N)[C@H](c6ccccc6)C5)N4C3=O)cc2c1 (some centres unmarked) [Compound 441] | ≤ 100 | – | –
CCCOC(=O)[C@H](C)NP(=O)(Oc1ccccc1)C(F)c1ccc2ccc(C(=O)N[C@H]3CN(C(=O)c4noc5cc(OC)ccc45)CC[C@H]4CC[C@@H](C(=O)N5CCOCC5)N4C3=O)cc2c1 (stereo partly drawn) [Compound 424, propyl ((fluoro(7-(((5S,8S,10aR)-3-(6-methoxybenzo[d]isoxazole-3-carbonyl)-8-(morpholine-4-carbonyl)-6-oxodeca-hydropyrrolo [1,2-a][1,5]diazocin-5-yl)carbamoyl)naphthalen-2-yl)methyl) (phenoxy)phosphoryl)-L-alaninate] | 1000 to 3000 | – | –
CCCOC(=O)[C@H](C)NP(=O)(Oc1ccccc1)C(F)c1ccc2ccc(C(=O)N[C@H]3CN(C(=O)c4noc5ccc(C)cc45)CC[C@H]4CC[C@@H](C(=O)N5CCN(S(C)(=O)=O)CC5)N4C3=O)cc2c1 (stereo partly drawn) [Compound 410, propyl ((fluoro(7-(((5S,8S,10aR)-3-(5-methylbenzo [d]isoxazole-3-carbonyl)-8-(4-(methylsulfonyl)piperazine-1-carbonyl)-6-oxodeca-hydropyrrolo [1,2-a][1,5]diazocin-5-yl)carbamoyl)naphthalen-2-yl)methyl) (phenoxy)phosphoryl)-L-alaninate] | 100 to 1000 | – | –
O=C(N[C@H]1CN(c2cc3ccccc3cn2)CC[C@H]2CC[C@@H](C(=O)N3CCOCC3)N2C1=O)c1ccc2ccc(C(F)P(=O)(O)O)cc2c1 (stereo partly drawn) [Compound 392, (fluoro(7-(((5S,8S, 10aR)-3-(isoquinolin-3-yl)-8-(morpholine-4-carbonyl)-6-oxodecahydropyrrolo [1,2-a][1,5]diazocin-5-yl)carbamoyl)naphthalen-2-yl)methyl)phosphonic acid] | – | 1000 to 10000 | 3000 to 30000
CC(=O)N1CC[C@H]2CC[C@@H](C(=O)N3CC(c4ccc(=O)[nH]c4)[C@@H](C#N)C3)N2C(=O)[C@@H](NC(=O)c2cc3cc(C(F)(F)P(=O)(O)O)ccc3s2)C1 (relative stereo) [Compound 146, ((2-(((5S,8S,10aR)-3-acetyl-8-((rel-trans)-3-cyano-4-(6-oxo-1,6-dihydropyridin-3-yl)pyrrolidine-1-carbonyl)-6-oxodecahydropyrrolo[1,2-a][1,5]diazocin-5-yl)carbamoyl)benzo[b]thiophen-5-yl)difluoromethyl)phosphonic acid] | – | 100 to 1000 | 300 to 3000
CC(=O)N1CC[C@H]2CC[C@@H](C(=O)Nc3ccc(-n4ccccc4=O)cc3)N2C(=O)[C@@H](NC(=O)c2cc3cc(C(F)(F)P(=O)(O)O)ccc3[nH]2)C1 [Compound 103, ((2-(((5S,8S,10aR)-3-acetyl-6-oxo-8-((4-(2-oxopyridin-1(2H)-yl)phenyl)carbamoyl)decahydropyrrolo[1,2-a][1,5]diazocin-5-yl)carbamoyl)-1H-indol-5-yl)difluoromethyl)phosphonic acid] | – | 1000 to 10000 | 3000 to 30000
CC(=O)N1CC[C@H]2CC[C@@H](C(=O)N3CC(c4ccccc4)C3)N2C(=O)[C@@H](NC(=O)c2cc3cc(C(F)(F)P(=O)(O)O)ccc3[nH]2)C1 [Compound 100, ((2-(((5S,8S,10aR)-3-acetyl-6-oxo-8-(3-phenylazetidine-1-carbonyl)decahydropyrrolo[1,2-a][1,5]diazocin-5-yl)carbamoyl)-1H-indol-5-yl)difluoromethyl)phosphonic acid] | – | 100 to 1000 | 300 to 3000
CC(=O)N1CC[C@H]2CC[C@@H](C(=O)N3CC(c4ccn(C)c(=O)c4)CC34CC4)N2C(=O)[C@@H](NC(=O)c2ccc3ccc(C(F)P(=O)(O)O)cc3c2)C1 (stereo partly drawn) [Compound 354, ((7-(((5S,8S,10a R)-3-acetyl-8-(6-(1-methyl-2-oxo-1,2-dihydropyridin-4-yl)-4-azaspiro[2.4]heptane-4-carbonyl)-6-oxodeca-hydropyrrolo [1,2-a][1,5]diazocin-5-yl)carbamoyl)naphthalen-2-yl)fluoromethyl) phosphonic acid] | – | > 10000 | ≤ 300
CC(=O)N1CC[C@H]2CC[C@@H](C(=O)N3CC(C#N)(c4ccccn4)C3)N2C(=O)[C@@H](NC(=O)c2cc3cc(C(F)(F)P(=O)(O)O)ccc3s2)C1 [Compound 88, ((2-(((5S,8S,10aR)-3-acetyl-8-(3-cyano-3-(pyridin-2-yl)azetidine-1-carbonyl)-6-oxodecahydropyrrolo[1,2-a][1,5]diazocin-5-yl)carbamoyl)benzo[b]thiophen-5-yl)difluoromethyl)phosphonic acid] | – | ≤ 100 | 300 to 3000
((2-(((5S,8S,10aR)-3-acetyl-8-((rel-trans)-3-cyano-3-methyl-4-phenylpyrrolidine-1-carbonyl)-6-oxodecahydropyrrolo[1,2-a][1,5]diazocin-5-yl)carbamoyl)benzo[b]thiophen-5-yl)difluoromethyl)phosphonic acid [Compound 41] | – | 1000 to 10000 | ≤ 300
N#CC1CN(C(=O)C2CCC3CCN(C(=O)OCc4ccccc4)CC(NC(=O)c4cc5cc(C(F)(F)P(=O)(O)O)ccc5s4)C(=O)N32)CC1c1ccccc1 (mixture of isomers) [Compound 9, ((2-(((5S,8S,10aR)-3-((benzyloxy)carbonyl)-8-((rel-trans)-3-cyano-4-phenylpyrrolidine-1-carbonyl)-6-oxodecahydropyrrolo[1,2-a][1,5]diazocin-5-yl)carbamoyl)benzo[b]thiophen-5-yl)difluoromethyl)phosphonic acid] | – | 100 to 1000 | ≤ 300
C[C@H](C(=O)N1CC[C@H]2CC[C@@H](C(=O)N(C)c3ccccc3)N2C(=O)[C@@H](NC(=O)c2cc3cc(C(F)(F)P(=O)(O)O)ccc3[nH]2)C1)c1ccccc1 [Compound 216, (difluoro(2-(((5S,8S,10aR)-8-(methyl(phenyl)carbamoyl)-6-oxo-3-((S)-2-phenylpropanoyl)decahydropyrrolo[1,2 a][1,5]diazocin-5-yl)carbamoyl)-1H-indol-5-yl)methyl)phosphonic acid] | – | 1000 to 10000 | 300 to 3000
COc1ccc(CC2CCCN2C(=O)[C@@H]2CC[C@@H]3CCN(C(C)=O)C[C@H](NC(=O)c4cc5cc(C(F)(F)P(=O)(O)O)ccc5[nH]4)C(=O)N32)cc1 (stereo partly drawn) [Compound 131, ((2-(((5S,8S,10aR)-3-acetyl-8-(2-(4-methoxybenzyl)pyrrolidine-1-carbonyl)-6-oxodecahydropyrrolo[1,2-a][1,5]diazocin-5-yl)carbamoyl)-1H-indol-5-yl)difluoromethyl)phosphonic acid] | – | 1000 to 10000 | 300 to 3000
